Like-named read-outs stand apart in the source and are kept apart here.
What was measured:
[1] = molecular target: T1, human serotonin transporter expressed in CHO cells (Homo sapiens, UniProt P31645); test: Inhibitory activity on serotonin transporter binding (3H-imipramine)
T1 construct: expressed in transfected cells; host or cells: CHO cells
Description: As used herein, the term “SSRI antidepressant” is intended to mean an agent that selectively binds to the serotonin transporter and inhibits the reuptake of serotonin through this serotonin transporter. Inhibitory activity on serotonin transporter binding may be measured, for example, as described in Eur. J. Pharmacol., 368: 277-283, 1999. Namely, it is measured by determining whether ^3H-labeled imipramine binds to the human serotonin transporter expressed in CHO cells.
(§1) Various cyclic dipeptides were measured for their inhibitory activity on serotonin transporter binding and norepinephrine transporter binding, as described in the prior documents mentioned above (Eur J Pharmacol, 368, 277-283, 1999 for inhibitory activity on serotonin transporter binding; and Nature, 350, 350-354, 1991 for inhibitory activity on noradrenaline transporter binding). Compound C was synthesized by Peptide Institute, Inc., Japan, and the other cyclic dipeptides were purchased from Bachem AG (Bubendorf, Switzerland). The results were expressed as IC50 values, i.e., the concentrations of the various cyclic peptides required for 50% inhibition of binding to each transporter (Table 1).

[2] = system: C57BL/6 mice; test: Morris water maze (MWM) after open space swimming (OSS), learning motivation; format: in vivo; conditions: for improving effect on learning motivation over control group (OSS-Vehicle): 20 mg/kg, MWM, FIG. 2
Description: On the other hand, the Morris water maze test has been reported as a method for measuring spatial memory and learning (Learn. Motiv. 12, 239-260 (1981)). In this test, the time required to reach an escape platform (escape latency) is used as a parameter for evaluation, because mice will remember their surrounding scenery and swim in a pool filled with water to try to find and reach the escape platform, which is a goal, with their memory as a guide. Since mice to be used in this test are treated to reduce their motivation by being allowed to swim in a pool having no escape platform before the Morris water maze test, a reduction in the time required to reach the escape platform can be regarded as an improvement in learning motivation.
Compound A was evaluated for its antidepressive effect and enhancing effect on learning motivation by the method known in the art, i.e., Morris Water Maze (MWM).
First, water which had been colored black with Indian ink was filled into a cylindrical tank of 90 cm diameter and 35 cm height to give a water depth of 20 cm, and the water temperature was set to 22±1° C. To this tank, C57BL/6 mice (male, 9 weeks of age) were each transferred and allowed to experience open space swimming (OSS). Upon OSS, mice will cause changes in their behavior and enter a state corresponding to depression. After repeating OSS for 5 days, the mice were divided into 7 groups.
Next, in the above cylindrical tank of 90 cm diameter and 35 cm height, an escape platform of 10 cm diameter was placed at a water depth of 0.5 cm. The above 7 groups of mice were each orally administered with compound A (Bachem AG (Bubendorf, Switzerland)) or with a comparative drug, fluvoxamine maleate, in the form of a suspension in physiological saline. After 60 minutes, each mouse was transferred to the tank provided with the escape platform, and measured for the time required to find out the invisible escape platform placed below the water surface (i.e., escape latency) to evaluate the spatial memory and learning ability of each mouse (MWM). As control mice, animals experiencing no OSS were administered with physiological saline and subjected to MWM. MWM was repeated five times a day for 10 days.
In the same manner as shown in Example 2, mice were administered with 20 mg/kg compound A and then subjected to the MWM test. As a control, a linear dipeptide (Phe-Phe) was administered at 20 mg/kg, followed by the MWM test.
In the same manner as shown in Example 2, another group receiving 0.002 mg/kg administration was prepared and subjected to the same MWM test.

[3] = system: mice; test: Single-dose (acute) toxicity study; format: in vivo; conditions: administered at 2 g/kg
[4] = system: rats; test: 28-day repeated dose toxicity study; format: in vivo
[5] = Genetic toxicity studies (Ames test, chromosomal aberration test, mouse micronucleus test)
[6] = molecular target: T2, human norepinephrine transporter expressed in CHO cells (Homo sapiens, UniProt P23975); test: Inhibitory activity on norepinephrine transporter binding (3H-nisoxetine); conditions: for IC50: concentration required for 50% inhibition of binding
T2 construct: expressed in transfected cells; host or cells: CHO cells
T2 sequence (P23975 whole entry): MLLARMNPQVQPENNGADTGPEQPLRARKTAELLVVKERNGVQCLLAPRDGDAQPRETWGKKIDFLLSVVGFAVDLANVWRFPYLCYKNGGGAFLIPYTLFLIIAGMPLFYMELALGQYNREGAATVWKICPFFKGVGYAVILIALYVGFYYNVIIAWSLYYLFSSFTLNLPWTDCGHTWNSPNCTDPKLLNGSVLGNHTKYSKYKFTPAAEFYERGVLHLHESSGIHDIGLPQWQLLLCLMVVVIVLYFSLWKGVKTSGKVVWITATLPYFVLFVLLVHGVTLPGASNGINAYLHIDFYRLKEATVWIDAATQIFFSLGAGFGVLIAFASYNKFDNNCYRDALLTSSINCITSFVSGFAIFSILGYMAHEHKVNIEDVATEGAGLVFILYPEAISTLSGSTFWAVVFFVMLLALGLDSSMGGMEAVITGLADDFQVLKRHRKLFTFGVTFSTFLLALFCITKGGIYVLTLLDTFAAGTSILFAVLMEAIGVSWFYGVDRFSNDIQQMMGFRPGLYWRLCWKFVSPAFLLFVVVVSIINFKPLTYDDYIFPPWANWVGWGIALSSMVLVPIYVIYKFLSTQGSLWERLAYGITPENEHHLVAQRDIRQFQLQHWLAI
Description: The term “SNRI antidepressant” is intended to mean an agent that binds to both serotonin and norepinephrine transporters, and inhibits the reuptake of serotonin and norepinephrine. Inhibitory activity on norepinephrine transporter binding may be measured, for example, as described in Nature, 350: 350-354, 1991. Namely, it is measured by determining whether ^3H-labeled nisoxetine binds to the human norepinephrine transporter expressed in CHO cells.
as §1

[7] = concentration required for 50% inhibition of binding, read-out: IC50, serotonin transporter (converted)

T1 sequence (P31645 whole entry): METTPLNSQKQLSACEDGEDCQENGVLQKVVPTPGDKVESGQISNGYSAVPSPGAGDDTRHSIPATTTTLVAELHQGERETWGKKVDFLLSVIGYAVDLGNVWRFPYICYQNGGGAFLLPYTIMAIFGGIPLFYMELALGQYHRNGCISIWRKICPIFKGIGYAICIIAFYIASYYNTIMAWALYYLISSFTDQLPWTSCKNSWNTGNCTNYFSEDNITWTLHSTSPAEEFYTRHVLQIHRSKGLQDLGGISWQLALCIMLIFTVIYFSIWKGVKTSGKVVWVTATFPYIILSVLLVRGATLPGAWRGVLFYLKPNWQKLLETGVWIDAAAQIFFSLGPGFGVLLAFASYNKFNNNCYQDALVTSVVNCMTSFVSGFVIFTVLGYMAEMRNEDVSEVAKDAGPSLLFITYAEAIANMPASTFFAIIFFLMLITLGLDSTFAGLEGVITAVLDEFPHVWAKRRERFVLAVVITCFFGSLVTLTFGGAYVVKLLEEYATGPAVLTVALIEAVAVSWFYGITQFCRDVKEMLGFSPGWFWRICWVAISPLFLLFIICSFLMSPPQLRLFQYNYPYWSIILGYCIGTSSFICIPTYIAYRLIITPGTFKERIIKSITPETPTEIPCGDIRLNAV

Row | Molecule | inhibitory activity on serotonin transporter binding (in words) [1] | IC50 [1, 7] [µM] | inhibitory activity on norepinephrine transporter binding (in words) [6] | IC50 [6] [µM] | other results
1 | O=C1N[C@@H](Cc2ccccc2)C(=O)N[C@H]1Cc1ccccc1 [Compound A, 2,5-piperazinedione,3,6-bis(phenylmethyl)-,(3S,6S)] | have inhibitory activity on serotonin transporter binding | 8.15 | – | – | IC50 ([1]; read-out: concentration (IC50) required for 50% inhibition of serotonin transporter binding): 8.1 µM; reduction of escape latency compared to control group (OSS-Saline) ([2]; 0.02 mg/kg oral, at 10 days of MWM): around 20%; time required to reach the escape platform versus fluvoxamine maleate group ([2]; 20 mg/kg oral, at 10 days of MWM): substantially the same; improving effect on learning motivation over control group (OSS-Vehicle) [2]: significant improving effect on learning motivation; human dose predicted from the effective dose in mice ([2]; 1/10 of the mouse dose 0.02 mg/kg): 0.1 mg/human (50 kg); escape latency, dose dependence ([2]; OSS mice, oral, MWM for 10 days, FIG. 1): dose-dependent reduction in the escape latency; dose at which the effect is exerted ([2]; mice, time to reach the escape platform at 7 days of MWM, FIG. 3): ≥ 0.02 mg/kg; toxicity in single-dose (acute) toxicity study [3]: no toxicity; maximum no-effect dose [4]: ≥ 2 g/kg/day; mutagenicity [5]: no mutagenicity
2 | O=C1N[C@@H](Cc2c[nH]cn2)C(=O)N2CCC[C@@H]12 [Compound B, pyrrolo[1,2-a]pyrazine-1,4-dione,hexahydro-3-(1H-imidazol-4-ylmethyl)-,(3S,8aS)] | have inhibitory activity on serotonin transporter binding | 2480 | – | – | –
3 | O=C1N[C@@H](Cc2c[nH]c3ccccc23)C(=O)N2CCC[C@@H]12 [Compound C, pyrrolo[1,2-a]pyrazine-1,4-dione,hexahydro-3-(1H-indol-3-ylmethyl)-,(3S,8aS)] | have inhibitory activity on serotonin transporter binding | 3740 | – | – | –
4 | O=C1N[C@@H](Cc2c[nH]c3ccccc23)C(=O)N[C@H]1Cc1c[nH]c2ccccc12 [Compound D, 2,5-piperazinedione,3,6-bis(1H-indol-3-ylmethyl)-,(3S,6S)] | – | – | have inhibitory activity on norepinephrine transporter binding | 148 | –
5 | CC(C)C[C@@H]1NC(=O)[C@@H]2CCCN2C1=O [Compound E, pyrrolo[1,2-a]pyrazine-1,4-dione,hexahydro-3-(2-methylpropyl)-,(3S,8aS)] | – | – | have inhibitory activity on norepinephrine transporter binding | 2000 | –
6 | CC(C)[C@@H]1NC(=O)[C@@H]2CCCN2C1=O [Compound F, pyrrolo[1,2-a]pyrazine-1,4-dione,hexahydro-3-(1-methylethyl)-,(3S,8aS)] | – | – | have inhibitory activity on norepinephrine transporter binding | 10700 | –
7 | Phe-Phe [reference compound] | – | – | – | – | improving effect on learning motivation over control group (OSS-Vehicle) [2]: not confirmed to have a significant effect

Reference: patent US9623073B2, “Learning motivation improvers” (SUNTORY HOLDINGS LIMITED, priority 2009, dated 2017)
